Reference: patent publication US12503482B2, “Compositions and methods for trehalose phospholipids” (The Brigham and Women's Hospital, Inc., priority 2019, dated 2025)
Residue numbers refer to the chain shown, from its start. Where two headings read alike, the source gives them in different places.

Experiments:
Assay type in all cases: cell-based
murine Mincle = target: T1, murine Mincle (Mus musculus, UniProt Q9R0Q8); test: Mincle activation assay, murine Mincle-FcRγ GFP reporter cell line with plate-coated lipids
T1 construct: expressed in transfected cells; host or cells: 2B4-NFAT-GFP cells
T1 sequence (Q9R0Q8 1-214): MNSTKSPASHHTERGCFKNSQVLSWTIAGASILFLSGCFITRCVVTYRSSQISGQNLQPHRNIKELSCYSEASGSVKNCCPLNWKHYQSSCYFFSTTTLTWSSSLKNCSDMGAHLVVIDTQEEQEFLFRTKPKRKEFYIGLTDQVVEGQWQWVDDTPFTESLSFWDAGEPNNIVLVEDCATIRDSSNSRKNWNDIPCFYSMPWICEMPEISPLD
T1 sequence (P20491 19-86 partner): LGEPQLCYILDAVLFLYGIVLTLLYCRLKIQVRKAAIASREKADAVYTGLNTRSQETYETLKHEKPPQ

FcRγ = test: Negative control reporter cell line expressing FcRγ only; settings: FIG. 3D
human Mincle = target: T2, human Mincle (Homo sapiens, UniProt Q9ULY5); test: Mincle activation assay, human Mincle-FcRγ GFP reporter cell line with plate-coated lipids; settings: FIG. 3D
T2 construct: expressed in transfected cells; host or cells: 2B4-NFAT-GFP cells
T2 sequence (Q9ULY5 1-219): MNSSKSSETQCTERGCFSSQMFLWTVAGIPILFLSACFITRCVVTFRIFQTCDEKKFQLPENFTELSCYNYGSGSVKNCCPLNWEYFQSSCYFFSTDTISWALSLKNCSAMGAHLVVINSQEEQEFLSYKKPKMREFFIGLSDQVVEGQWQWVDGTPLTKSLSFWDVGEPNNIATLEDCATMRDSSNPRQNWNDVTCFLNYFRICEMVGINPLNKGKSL
T2 sequence (P30273 19-86 partner): T1 sequence (P20491 19-86 partner) with V13I, A38T, R40Y, A43S, A45G, N51S, S54N

Compound	amount of coated lipid at which reporter cells respond (GFP expression) (murine Mincle)	activation of negative control cell line expressing FcRγ only (FcRγ)	relative sensitivity of human Mincle to diPT versus TDM (human Mincle)	activation of human Mincle reporter cell line (human Mincle; comparison of murine and human reporter lines)	relative sensitivity of murine Mincle to diPT versus TDM (murine Mincle; FIG. 3D)	activation of murine Mincle reporter cell line (murine Mincle; comparison of murine and human reporter lines, FIG. 3D)	amount of coated lipid at which reporter cells respond (GFP expression) (murine Mincle; murine Mincle-FcRγ reporter cell line, plate-coated lipid, FIG. 3C)
6,6′-diphosphatidyltrehalose [natural diPT]	5 ng	–	–	–	–	–	–
CCCCCCCCCCCCCCCC(=O)OC[C@H](COP(=O)(O)OCC1OC(OC2OC(COP(=O)(O)OC[C@@H](COC(=O)CCCCCCCCCCCCCCC)OC(=O)CCCCCCC[C@H]3C[C@H]3CCCCCC)C(O)C(O)C2O)C(O)C(O)C1O)OC(=O)CCCCCCC[C@H]1C[C@H]1CCCCCC (some centres unmarked) [synthetic diPT, 6,6′-diphosphatidyltrehalose]	–	failed to activate	marginally more sensitive to diPT than to TDM	activation present at nanogram levels	the opposite is true	activation present at nanogram levels	20 ng
trehalose dimycolate [TDM, reference compound]	5 ng	–	–	–	–	–	–
